Reference: patent US10716762B2, “Transmucosal administration system for a pharmaceutical drug” (LTS Lohmann Therapie-Systeme AG, priority 2012, dated 2020)

How the values were obtained:
[1] = First-pass metabolism of idebenone through the liver after oral administration; type: in vivo; details: after absorption in the gut
Excerpt: As a lipophilic compound idebenone is well absorbed in the gastrointestinal tract after conventional oral administration, which is the normal route for administering said compound. Dosage forms such as tablets or capsules have been used in clinical trials and as marketed product. In the course of our investigations on the pharmacological profile of idebenone, we discovered that the compound, after being absorbed in the gut, is metabolized very quickly during its first passage through the liver (“first-pass-effect”). […] Hepatic metabolism of idebenone results in side chain oxidation, reduction of the quinone ring, sulphate and glucuronide conjugation and subsequent renal excretion. The high liver metabolism greatly reduces the potentially high plasma levels of the pharmacologically active idebenone. Because of this strong first pass metabolism, oral administration of idebenone requires high doses of the compound to achieve pharmacologically efficacious plasma levels in the body. Said high doses can result in unwanted side effects such as diarrhea.

[2] = 536 patients, up to 360 mg t.i.d.; Thal et al., Neurology 61 (2003); cited from earlier work
[3] = Pharmacokinetics of idebenone after oromucosal (oral wafer) vs. oral (gavage) administration, three way cross-over study; type: in vivo, female Beagle dogs; details: oral administration by gavage vs. oral-mucosal application
Description: Plasma levels of idebenone were studied after the administration of two different thin film formulations (oral wafers) administered via the oromucosal route and compared to the profile obtained when idebenone is dosed by the oral route (gavage) in a micro-emulsion. The doses used in this study were 30 mg oromucosal (oral wafer A, suspension type), 15 mg oromucosal (oral wafer B, solid solution type) and 300 mg oral (TPGS/Miglyol microemulsion administered by oral gavage). The study was a three way cross-over study with one week wash-out between administrations. Formulations were administered to female Beagle dogs under fasted conditions. The pharmacokinetic exposure of free (unconjugated) idebenone and its total metabolites (total idebenone, total QS10, total QS6, and total QS4) was determined for each formulation.
Blood samples were collected at several time points over 6 hours after administration. Concentrations of idebenone in plasma were measured by HPLC-MS/MS and pharmacokinetic parameters were calculated.
For this, idebenone was separated and quantified by HPLC-MS/MS: For HPLC, a SYNERGI™ 4μ MAX-RP (50×2 mm) column (Phenomenex. Schlieren, Switzerland) was used. Column temperature: 50° C. […]
Once separated, idebenone was quantified by ESI-MS/MS (API 4000, Perkin-Elmer-Europe BV, Rotkreuz, Switzerland) in positive mode. […]

COC1=C(OC)C(=O)C(CCCCCCCCCCO)=C(C)C1=O [idebenone, 2,3-dimethoxy-5-methyl-6-(10-hydroxydecyl)-1,4-benzoquinone]
idebenone metabolized during its first passage through the liver [1]: more than 98% | treatment emergent adverse events compared to placebo [2]: no treatment emergent adverse events except some gastrointestinal irritations as well as a slight increase in orthopedic events | metabolic spectrum of idebenone [3]: comparable
